Results taken from patent publication US12617787B2, “Merged scaffold TAF1 inhibitors” (H. LEE MOFFITT CANCER CENTER AND RESEARCH INSTITUTE, INC., priority 2020, dated 2026).
“Also recorded” adds a separate entry of the source.

Legend:
purified FLAG-ATR = target: T1, purified FLAG-ATR (Homo sapiens, UniProt Q13535); experiment: ELISA-based kinase activity: phosphorylation of p53 S15 by purified FLAG-ATR in vitro; format: biochemical; settings: FIG. 3
T1 construct: FLAG
Description: ELISA-based kinase activity was used to test the ability of compounds to inhibit phosphorylation of p53 S15 by purified FLAG-ATR in vitro.

[1] = tested on: HCT116 cells with and without p53; experiment: Western blot of marker expression (p21) in HCT116 cells with and without p53; format: cell-based; settings: HCT116 cells with and without p53, treated 30 hrs, FIG. 4
Procedure: HCT116 cells with and without p53 were treated with compounds for 30 hrs. Expression levels of indicated markers were determined by western blot.

TAF1-2 = target: T2, TAF1-2 (Homo sapiens, UniProt P21675); experiment: DSF for TAFi with TAF1-2; format: binding; settings: protein TAF1-2, DMSO = 0
T2 construct: a tandem bromodomain (BD1 and BD2)
T2 sequence (P21675 1519-1628 limits assumed): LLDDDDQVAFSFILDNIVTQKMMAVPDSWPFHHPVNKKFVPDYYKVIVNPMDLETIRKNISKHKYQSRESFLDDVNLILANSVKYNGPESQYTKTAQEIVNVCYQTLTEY

T1 sequence (Q13535 whole entry): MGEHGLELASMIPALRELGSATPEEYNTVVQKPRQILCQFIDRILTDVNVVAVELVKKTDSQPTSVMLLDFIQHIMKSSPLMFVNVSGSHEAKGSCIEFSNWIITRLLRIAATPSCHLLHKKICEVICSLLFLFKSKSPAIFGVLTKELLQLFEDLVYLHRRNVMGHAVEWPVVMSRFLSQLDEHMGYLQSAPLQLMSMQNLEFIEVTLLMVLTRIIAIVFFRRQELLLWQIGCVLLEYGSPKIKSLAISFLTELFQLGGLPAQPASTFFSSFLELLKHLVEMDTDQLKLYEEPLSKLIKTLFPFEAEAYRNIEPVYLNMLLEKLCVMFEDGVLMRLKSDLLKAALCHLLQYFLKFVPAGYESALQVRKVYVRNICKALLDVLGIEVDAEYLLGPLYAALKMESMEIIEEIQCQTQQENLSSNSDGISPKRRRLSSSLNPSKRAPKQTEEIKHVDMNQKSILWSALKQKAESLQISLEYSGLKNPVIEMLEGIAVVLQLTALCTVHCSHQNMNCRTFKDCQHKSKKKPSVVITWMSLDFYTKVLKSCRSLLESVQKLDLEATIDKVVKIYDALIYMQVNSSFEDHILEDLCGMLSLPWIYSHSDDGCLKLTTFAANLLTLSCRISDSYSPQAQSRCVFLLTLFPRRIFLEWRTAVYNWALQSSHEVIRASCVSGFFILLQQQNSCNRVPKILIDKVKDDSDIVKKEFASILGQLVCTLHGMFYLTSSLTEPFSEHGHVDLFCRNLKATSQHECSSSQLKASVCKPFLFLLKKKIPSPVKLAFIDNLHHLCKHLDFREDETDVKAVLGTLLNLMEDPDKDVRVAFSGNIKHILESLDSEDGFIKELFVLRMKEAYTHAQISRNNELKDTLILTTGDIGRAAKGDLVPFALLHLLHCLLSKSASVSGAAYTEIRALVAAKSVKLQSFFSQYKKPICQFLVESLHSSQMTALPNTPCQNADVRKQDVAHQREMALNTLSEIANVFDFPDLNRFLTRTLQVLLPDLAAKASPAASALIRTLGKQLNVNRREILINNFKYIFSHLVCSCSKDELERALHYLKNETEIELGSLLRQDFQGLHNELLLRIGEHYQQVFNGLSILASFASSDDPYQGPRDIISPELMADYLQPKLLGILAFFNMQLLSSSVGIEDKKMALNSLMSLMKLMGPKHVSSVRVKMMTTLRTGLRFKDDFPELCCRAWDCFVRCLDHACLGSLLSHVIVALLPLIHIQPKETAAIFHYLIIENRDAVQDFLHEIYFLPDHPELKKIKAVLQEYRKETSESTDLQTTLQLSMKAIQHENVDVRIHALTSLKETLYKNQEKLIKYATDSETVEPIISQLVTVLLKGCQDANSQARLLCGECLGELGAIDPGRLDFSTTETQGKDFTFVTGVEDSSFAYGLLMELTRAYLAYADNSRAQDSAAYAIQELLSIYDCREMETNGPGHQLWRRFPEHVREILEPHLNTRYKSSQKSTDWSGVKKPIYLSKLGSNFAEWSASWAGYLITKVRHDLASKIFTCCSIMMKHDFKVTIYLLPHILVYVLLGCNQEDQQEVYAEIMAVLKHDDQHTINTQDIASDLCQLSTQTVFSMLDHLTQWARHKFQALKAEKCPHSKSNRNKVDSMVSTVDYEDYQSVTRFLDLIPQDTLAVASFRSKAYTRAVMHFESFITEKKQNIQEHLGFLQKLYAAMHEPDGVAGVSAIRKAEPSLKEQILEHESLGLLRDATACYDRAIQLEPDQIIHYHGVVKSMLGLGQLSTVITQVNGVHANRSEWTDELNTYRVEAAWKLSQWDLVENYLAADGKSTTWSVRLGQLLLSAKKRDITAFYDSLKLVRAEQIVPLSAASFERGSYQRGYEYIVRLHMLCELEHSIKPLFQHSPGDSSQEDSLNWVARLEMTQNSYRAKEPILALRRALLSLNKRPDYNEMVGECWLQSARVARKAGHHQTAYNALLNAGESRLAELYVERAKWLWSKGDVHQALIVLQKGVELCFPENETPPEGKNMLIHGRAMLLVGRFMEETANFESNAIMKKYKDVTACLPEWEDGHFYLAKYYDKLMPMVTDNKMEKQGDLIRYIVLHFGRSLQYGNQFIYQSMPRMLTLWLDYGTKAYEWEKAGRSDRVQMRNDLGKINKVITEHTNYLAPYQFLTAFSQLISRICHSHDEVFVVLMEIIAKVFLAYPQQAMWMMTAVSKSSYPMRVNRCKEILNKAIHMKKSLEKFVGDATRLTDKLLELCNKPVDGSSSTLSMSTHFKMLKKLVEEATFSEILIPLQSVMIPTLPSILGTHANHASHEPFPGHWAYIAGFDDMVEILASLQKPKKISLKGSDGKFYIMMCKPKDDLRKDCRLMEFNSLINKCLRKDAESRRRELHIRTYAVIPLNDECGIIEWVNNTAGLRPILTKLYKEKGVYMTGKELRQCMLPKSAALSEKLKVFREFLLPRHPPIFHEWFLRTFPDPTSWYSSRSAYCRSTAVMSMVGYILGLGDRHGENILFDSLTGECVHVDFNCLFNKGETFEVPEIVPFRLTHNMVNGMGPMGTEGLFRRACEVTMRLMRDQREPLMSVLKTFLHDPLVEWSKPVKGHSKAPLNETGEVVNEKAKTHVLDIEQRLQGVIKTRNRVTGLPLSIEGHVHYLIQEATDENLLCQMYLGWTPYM

ATm + SEM (° C.) (TAF1-2)	Structure (SMILES)	inhibition of ATR (phosphorylation of p53 S15) (purified FLAG-ATR)	p53-mediated p21 expression [1]
	C=CCCn1cc(-c2cc(C3([S@](C)(=N)=O)CC3)nc(-c3ccnc4[nH]ccc34)n2)c2cc[nH]c2c1=O [ZS1-681]	does not inhibit ATR; also recorded: absence of inhibition	induces p53-mediated p21 expression
	C=CCCn1cc(-c2cc(C(=O)N3CCOCC3)cc3c2ncn3C)c2cc[nH]c2c1=O [GNE-371, reference compound]	absence of inhibition	
3.4 ± 0.1 °C	C[C@@H]1COCCN1c1cc(C2([S@](C)(=N)=O)CC2)nc(-c2cc[nH]c3nccc2-3)n1 [AZD6738]		
